Measurements taken from patent US11155567B2, “Sting agonist compounds and methods of use” (Mersana Therapeutics, Inc., priority 2019, dated 2021).

Target: T1, Human STING (Homo sapiens, UniProt Q86WV6, G230A/H232R/R293Q/R71H)
T1 construct: host or cells: THP1-Dual cells, digitonin-permeabilized
Assay: Activation of human STING signaling in permeabilized THP1 cells, IRF3 induction
Assay type: cell-based
Settings: THP1-Dual cells permeabilized with digitonin buffer 30 minutes on ice, then 24 h in RPMI media
Experimental: To evaluate IRF3 reporter levels, cell culture supernatant (20 μl) from each incubated sample was added to QUANTI-Luc™ assay solution (Invivogen, 50 μl), and the luminescence was measured with a SpectraMax M3 spectrophotometer (Molecular Devices).
4×10^5 THP1-Dual™ cells (NF-κB-SEAP and IRF-Lucia luciferase Reporter Monocytes, Invivogen) were incubated with test Compounds in a 5-fold titration steps from […] in permeabilized buffer (50 mM HEPES pH 7.0, 100 mM KCl, 3 mM MgCl2, 85 mM sucrose, 0.2% BSA, 1 mM ATP, 0.1 mM GTP, 0.1 mM TTP, 1 μg/ml digitonin) for 30 minutes on ice. Cells were then washed and incubated in a fresh RPMI media with 10% FBS at 37° C. with 5% CO2 for 24 h. Cell culture supernatants from each sample were collected and NFkB and IRF3 were evaluated as above. Table 3 provides the results for IRF3 induction (“A” means <1 μM; “B” means ≥1 μM and <50 μM; “C” means ≥50 μM).

T1 sequence (Q86WV6 whole entry R71H/G230A/H232R/R293Q): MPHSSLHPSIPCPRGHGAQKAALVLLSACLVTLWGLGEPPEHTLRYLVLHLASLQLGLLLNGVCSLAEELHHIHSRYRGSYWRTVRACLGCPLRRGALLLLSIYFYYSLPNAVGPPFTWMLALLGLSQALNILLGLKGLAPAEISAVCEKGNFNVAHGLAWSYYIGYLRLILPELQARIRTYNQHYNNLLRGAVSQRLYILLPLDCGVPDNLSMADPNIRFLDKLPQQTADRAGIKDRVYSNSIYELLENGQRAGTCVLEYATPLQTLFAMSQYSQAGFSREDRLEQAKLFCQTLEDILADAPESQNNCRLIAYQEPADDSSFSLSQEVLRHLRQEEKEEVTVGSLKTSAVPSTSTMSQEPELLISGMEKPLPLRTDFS

SMILES	EC50 [nM]
CCc1nc(C)oc1C(=O)Nc1nc2cc(C(N)=O)cc(OCCCO)c2n1C/C=C/Cn1c(NC(=O)c2cc(C)nn2CC)nc2cc(C(N)=O)cnc21 [Compound 111]	< 1000
CCn1nc(C)cc1C(=O)Nc1nc2cc(C(N)=O)cnc2n1C/C=C/Cn1c(NC(=O)c2cc(C)nn2CC)nc2cc(C(N)=O)cc(OCCCC(=O)O)c21 [Compound 112]	< 1000
CCn1nc(C)cc1C(=O)Nc1nc2cc(C(N)=O)cnc2n1C/C=C/Cn1c(NC(=O)c2oc(C)nc2C)nc2cc(C(N)=O)cc(OCCCO)c21 [Compound 113]	1000 to 50000
CCn1nc(C)cc1C(=O)Nc1nc2cccnc2n1C/C=C/Cn1c(NC(=O)c2cc(C)nn2CC)nc2cc(C(N)=O)cc(OCCCO)c21 [Compound 114]	1000 to 50000
CCn1nc(C)cc1C(=O)/N=c1\sc2cc(C(=O)OC)cc(OC)c2n1C/C=C/Cn1c(NC(=O)c2cc(C)nn2CC)nc2cc(C(N)=O)cc(OCCCO)c21 [Compound 115]	< 1000
CCn1nc(C)cc1C(=O)Nc1nc2cc(CN)cnc2n1C/C=C/Cn1c(NC(=O)c2cc(C)nn2CC)nc2cc(C(N)=O)cc(OCCCO)c21 [Compound 122]	< 1000
CCn1nc(C)cc1C(=O)Nc1nc2cc(C(=O)OC)cnc2n1C/C=C/Cn1c(NC(=O)c2cc(C)nn2CC)nc2cc(C(N)=O)cc(OCCCO)c21 [Compound 123]	< 1000
CCn1nc(C)cc1C(=O)Nc1nc2cc(CN(C)C)cnc2n1C/C=C/Cn1c(NC(=O)c2cc(C)nn2CC)nc2cc(C(N)=O)cc(OCCCO)c21 [Compound 125]	< 1000
CCn1nc(C)cc1C(=O)Nc1nc2cc(CNC(C)=O)cnc2n1C/C=C/Cn1c(NC(=O)c2cc(C)nn2CC)nc2cc(C(N)=O)cc(OCCCO)c21 [Compound 126]	< 1000
CCc1nc(C)oc1C(=O)Nc1nc2cc(CN)cc(OC)c2n1C/C=C/Cn1c(NC(=O)c2oc(C)nc2CC)nc2cc(C(N)=O)cc(OCCCO)c21 [Compound 128]	< 1000
CCn1nc(C)cc1C(=O)Nc1nc2cc(CN)cnc2n1C/C=C/Cn1c(NC(=O)c2cc(C)nn2CC)nc2cc(C(N)=O)cc(OC)c21 [Compound 129]	1000 to 50000
CCc1nc(C)oc1C(=O)Nc1nc2cc(CNC(C)=O)cc(OC)c2n1C/C=C/Cn1c(NC(=O)c2oc(C)nc2CC)nc2cc(C(N)=O)cc(OCCCO)c21 [Compound 130]	1000 to 50000
CCc1nc(C)oc1C(=O)Nc1nc2cc(NC(C)=O)cc(OC)c2n1C/C=C/Cn1c(NC(=O)c2oc(C)nc2CC)nc2cc(C(N)=O)cc(OCCCO)c21 [Compound 131]	1000 to 50000
CCn1nc(C)cc1C(=O)Nc1nc2cc(CN(C)C)cnc2n1C/C=C/Cn1c(NC(=O)c2cc(C)nn2CC)nc2cc(C(N)=O)cc(OC)c21 [Compound 132]	1000 to 50000
CCc1nc(C)oc1C(=O)Nc1nc2cc(CN(C)C)cc(OC)c2n1C/C=C/Cn1c(NC(=O)c2oc(C)nc2CC)nc2cc(C(N)=O)cc(OCCCO)c21 [Compound 133]	1000 to 50000
CCn1nc(C)cc1C(=O)Nc1nc2cc(N)cnc2n1C/C=C/Cn1c(NC(=O)c2cc(C)nn2CC)nc2cc(C(N)=O)cc(OC)c21 [Compound 134]	< 1000
CCc1nc(C)oc1C(=O)Nc1nc2cc(N)cc(OC)c2n1C/C=C/Cn1c(NC(=O)c2oc(C)nc2CC)nc2cc(C(N)=O)cc(OCCCO)c21 [Compound 135]	1000 to 50000
CCc1nc(C)oc1C(=O)Nc1nc2cc(C(N)=O)cc(OC)c2n1C/C=C/Cn1c(NC(=O)c2cnc(C)o2)nc2cc(C(N)=O)cc(OCCCO)c21 [Compound 136]	≥ 50000
CCn1nc(C)cc1C(=O)Nc1nc2cc(CNC(C)=O)cnc2n1C/C=C/Cn1c(NC(=O)c2cc(C)nn2CC)nc2cc(C(N)=O)cc(OC)c21 [Compound 137]	≥ 50000
CCc1nc(C)oc1C(=O)Nc1nc2cc(C(N)=O)cc(OC)c2n1C/C=C/Cn1c(NC(=O)c2cnco2)nc2cc(C(N)=O)cc(OCCCO)c21 [Compound 138]	≥ 50000
CCc1nc(C)oc1C(=O)Nc1nc2cc(C(N)=O)cc(O)c2n1C/C=C/Cn1c(NC(=O)c2oc(C)nc2CC)nc2cc(C(N)=O)cc(O)c21 [Compound 139]	≥ 50000
CCn1nc(C)cc1C(=O)/N=c1\sc2cc(C(N)=O)cnc2n1C/C=C/Cn1c(NC(=O)c2cc(C)nn2CC)nc2cc(C(N)=O)cc(OCCCC(=O)O)c21 [Compound 140]	< 1000
CCc1nc(C)sc1C(=O)Nc1nc2cc(C(N)=O)cc(OC)c2n1C/C=C/Cn1c(NC(=O)c2sc(C)nc2CC)nc2cc(C(N)=O)cc(OCCCC(=O)O)c21 [Compound 141]	1000 to 50000
CCc1nc(C)oc1C(=O)/N=c1\sc2cc(C(N)=O)cnc2n1C/C=C/Cn1c(NC(=O)c2sc(C)nc2CC)nc2cc(C(N)=O)cc(OCCCO)c21 [Compound 142]	< 1000
CCc1nc(C)oc1C(=O)Nc1nc2cc(C(N)=O)cnc2n1C/C=C/Cn1c(NC(=O)c2sc(C)nc2CC)nc2cc(C(N)=O)cc(OCCCO)c21 [Compound 143]	< 1000

SMILES	EC50 [nM]
CCc1nc(C)sc1C(=O)Nc1nc2cc(C(N)=O)cnc2n1C/C=C/Cn1c(NC(=O)c2sc(C)nc2CC)nc2cc(C(N)=O)cc(OCCCO)c21 [Compound 144]	≥ 50000
CCc1nc(C)sc1C(=O)/N=c1\sc2cc(C(N)=O)cnc2n1C/C=C/Cn1c(NC(=O)c2sc(C)nc2CC)nc2cc(C(N)=O)cc(OCCCO)c21 [Compound 145]	≥ 50000
CCn1nc(C)cc1C(=O)/N=c1\sc2cc(C(N)=O)cc(OCCCO)c2n1C/C=C/Cn1c(NC(=O)c2cc(C)nn2CC)nc2cc(C(N)=O)cnc21 [Compound 147]	1000 to 50000
CCc1nc(C)oc1C(=O)Nc1nc2cc(C(N)=O)cc(OC)c2n1C/C=C/Cn1c(NC(=O)c2sc(C)nc2CC)nc2cc(C(N)=O)cc(OCCCC(=O)O)c21 [Compound 149]	< 1000
CCc1nc(C)oc1C(=O)Nc1nc2cc(C(N)=O)cc(OCCCC(=O)O)c2n1C/C=C/Cn1/c(=N/C(=O)c2cc(C)nn2CC)sc2cc(C(N)=O)cc(OC)c21 [Compound 150]	< 1000
CCc1nc(C)oc1C(=O)Nc1nc2cc(C(N)=O)cnc2n1C/C=C/Cn1c(NC(=O)c2sc(C)nc2CC)nc2cc(C(N)=O)cc(OCCCC(=O)O)c21 [Compound 151]	< 1000
CCc1nc(C)oc1C(=O)/N=c1\sc2cc(C(N)=O)cnc2n1C/C=C/Cn1c(NC(=O)c2oc(C)nc2CC)nc2cc(C(N)=O)cc(OCCCC(=O)O)c21 [Compound 155]	< 1000
CCc1nc(C)sc1C(=O)Nc1nc2cc(C(N)=O)cc(OC)c2n1C/C=C/Cn1c(NC(=O)c2sc(C)nc2CC)nc2cc(C(N)=O)cc(OCCCO)c21 [compound 10]	< 1000
CCc1nn(C)cc1C(=O)Nc1nc2cc(C(N)=O)cc(OC)c2n1C/C=C/Cn1c(NC(=O)c2cn(C)nc2CC)nc2cc(C(N)=O)cc(OCCCO)c21 [compound 11]	1000 to 50000
COc1cc(C(N)=O)cc2nc(NC(=O)c3cc(C)no3)n(C/C=C/Cn3c(NC(=O)c4cc(C)no4)nc4cc(C(N)=O)cc(OCCCO)c43)c12 [compound 12]	1000 to 50000
COc1cc(C(N)=O)cc2nc(NC(=O)c3nc(C)oc3C)n(C/C=C/Cn3c(NC(=O)c4nc(C)oc4C)nc4cc(C(N)=O)cc(OCCCO)c43)c12 [compound 13]	≥ 50000
COc1cc(C(N)=O)cc2nc(NC(=O)c3cc4ncccc4o3)n(C/C=C/Cn3c(NC(=O)c4cc5ncccc5o4)nc4cc(C(N)=O)cc(OCCCO)c43)c12 [compound 14]	≥ 50000
COc1cc(C(N)=O)cc2nc(NC(=O)c3nccn3C(C)C)n(C/C=C/Cn3c(NC(=O)c4nccn4C(C)C)nc4cc(C(N)=O)cc(OCCCO)c43)c12 [compound 15]	≥ 50000
COc1cc(C(N)=O)cc2nc(NC(=O)c3cnc(C)n3C)n(C/C=C/Cn3c(NC(=O)c4cnc(C)n4C)nc4cc(C(N)=O)cc(OCCCO)c43)c12 [compound 16]	≥ 50000
COc1cc(C(N)=O)cc2nc(NC(=O)c3cnc(C(F)(F)F)s3)n(C/C=C/Cn3c(NC(=O)c4cnc(C(F)(F)F)s4)nc4cc(C(N)=O)cc(OCCCO)c43)c12 [compound 17]	≥ 50000
CCc1nc(C)oc1C(=O)Nc1nc2cc(C(N)=O)cc(OC)c2n1C/C=C/Cn1c(NC(=O)c2oc(C)nc2CC)nc2cc(C(N)=O)cc(OCCCC(=O)O)c21 [compound 19]	< 1000
Cc1cc(C(=O)Nc2nc3cc(C(N)=O)ccc3n2C/C=C/Cn2c(NC(=O)c3cc(C)on3)nc3cc(C(N)=O)cc(OCCCO)c32)no1 [compound 26]	< 1000
Cn1nncc1C(=O)Nc1nc2cc(C(N)=O)ccc2n1C/C=C/Cn1c(NC(=O)c2cnnn2C)nc2cc(C(N)=O)cc(OCCCO)c21 [compound 27]	≥ 50000
NC(=O)c1ccc2c(c1)nc(NC(=O)c1cocn1)n2C/C=C/Cn1c(NC(=O)c2cocn2)nc2cc(C(N)=O)cc(OCCCO)c21 [compound 28]	≥ 50000
CCc1nc(C)oc1C(=O)Nc1nc2cc(C(N)=O)cc(OCCCO)c2n1C/C=C/Cn1c(NC(=O)c2cc(C)nn2CC)nc2cc(C(N)=O)cc(OC)c21 [compound 36]	< 1000
CCc1nc(C)oc1C(=O)Nc1nc2cc(C(N)=O)cc(OCCCO)c2n1C/C=C/Cn1c(NC(=O)c2sc(C)nc2CC)nc2cc(C(N)=O)cc(OC)c21 [compound 37]	< 1000
CCc1nc(C)sc1C(=O)Nc1nc2cc(C(N)=O)cc(OCCCO)c2n1C/C=C/Cn1c(NC(=O)c2cc(C)nn2CC)nc2cc(C(N)=O)cc(OC)c21 [compound 38]	< 1000
CCc1nn(C)cc1C(=O)Nc1nc2cc(C(N)=O)cc(OCCCO)c2n1C/C=C/Cn1c(NC(=O)c2cc(C)nn2CC)nc2cc(C(N)=O)cc(OC)c21 [compound 39]	< 1000
CCc1nc(C)oc1C(=O)Nc1nc2cc(C(N)=O)cc(OC)c2n1C/C=C/Cn1c(NC(=O)c2sc(C)nc2CC)nc2cc(C(N)=O)cc(OCCCO)c21 [compound 40]	< 1000
